From patent EP1935887A1, “Heterocyclic substituted carbonyl derivatives and their use as dopamine D3 receptor ligands” (Aventis Pharmaceuticals Inc., priority 2001, dated 2002)

What follows are compounds tested against T1, Cloned Human Dopamine D3 Receptors (Homo sapiens, UniProt P35462) (assay: [N-Methyl-3H]Spiroperidol binding to cloned human dopamine D3 receptors). Conditions: read-out: D3 Ki.
T1 construct: expressed in transfected cells; membrane homogenate
T1 sequence (P35462 whole entry): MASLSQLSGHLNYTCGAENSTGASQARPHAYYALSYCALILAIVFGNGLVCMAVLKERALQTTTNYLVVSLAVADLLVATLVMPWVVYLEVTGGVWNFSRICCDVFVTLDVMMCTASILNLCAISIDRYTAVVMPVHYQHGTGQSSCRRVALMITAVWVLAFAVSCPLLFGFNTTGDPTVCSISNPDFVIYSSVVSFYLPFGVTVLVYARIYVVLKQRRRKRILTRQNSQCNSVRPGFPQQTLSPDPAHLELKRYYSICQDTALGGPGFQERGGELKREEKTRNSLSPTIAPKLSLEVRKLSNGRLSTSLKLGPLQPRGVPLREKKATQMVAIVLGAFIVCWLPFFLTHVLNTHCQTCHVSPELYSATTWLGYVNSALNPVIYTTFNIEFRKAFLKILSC
In short: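 [N-methyl-3H]spiroperidol binding is run in Tris buffer, pH 7.7. Receptor source is membranes of a stably transfected, high-expressing CHO clone carrying the human D3 gene, kept at -80°C in 10% DMSO.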
Cn1nc(N2CCN(C[C@@H]3C[C@H]3C(=O)NCCCn3ccnc3)CC2)c2ccccc21 [compound 833822] was tested, and the Ki was 0.64 nM.
O=C(NCCCn1ccnc1)[C@@H]1C[C@H]1CN1CCN(c2nn(-c3ccc(F)cc3)c3ccccc23)CC1 [compound 833823] gave a Ki of 0.637 nM.
For C[C@H]1CC[C@H](NC(=O)[C@@H]2C[C@H]2CN2CCN(c3nn(-c4cccc(F)c4)c4ccsc34)CC2)CC1 [compound 833856], the Ki was 3.01 nM.
In the case of C[C@H]1CC[C@H](NC(=O)[C@@H]2C[C@H]2CN2CCN(c3nn(-c4ccc(OC(F)(F)F)cc4)c4ccsc34)CC2)CC1 [compound 833876], the Ki is reported as 50.3 nM.
For O=C(NCCCn1ccnc1)[C@@H]1C[C@H]1CN1CCC(c2csc3cc(C(F)(F)F)ccc23)CC1 [compound 834003], the Ki was 3.51 nM.
C[C@H]1CC[C@H](NC(=O)[C@@H]2C[C@H]2CN2CCC(c3csc4cc(C(F)(F)F)ccc34)CC2)CC1 [compound 834016] was tested, and the Ki was 1.63 nM.
Work on COc1cccc2c(C3CCN(C[C@@H]4C[C@H]4C(=O)N[C@H]4CC[C@H](C)CC4)CC3)nn(C)c12 [compound 834054] yielded a Ki of 13.8 nM.
